# Experimental data published in ChEMBL document CHEMBL2150986, “Synthesis and biological evaluation of 1-benzylidene-3,4-dihydronaphthalen-2-one as a new class of microtubule-targeting agents” (J Med Chem, 2012).
# How the values were obtained:
# HCT-116 = assay: cells; settings: Homo sapiens, HCT-116, 72 h
# MDA-MB-435 = assay: cells; settings: Homo sapiens, MDA-MB-435, 72 h
# Description: Cytotoxicity against human MDA-MB-435 cells after 72 hrs by MTT assay
# CCRF-CEM = assay: Cytotoxicity against human CEM cells after 72 hrs by MTT assay; type: functional, cell-based
# Tubulin = Tubulin (Sus scrofa, UniProt P02554+P02550); assay: Inhibition of porcine brain tubulin assembly measured every 1 min for 60 mins by turbidimetric analysis
SMILES,IC50 (HCT-116),IC50 (MDA-MB-435),IC50 (CCRF-CEM),IC50 (Tubulin)
COc1ccc2c(c1)/C(=C\c1ccc(Br)cc1)C(=O)CC2,> 10 µM,> 10 µM,> 10 µM,–
COc1cccc2c1CCC(=O)/C2=C/c1ccc(Cl)cc1Cl,7.14 µM,9.32 µM,> 10 µM,–
COc1ccc2c(c1)CCC(=O)/C2=C/c1ccc(N(C)C)cc1,8.73 µM,5.68 µM,8.03 µM,–
COc1cccc2c1CCC(=O)/C2=C/c1ccc(O)cc1,2.69 µM,1.54 µM,4.32 µM,–
COc1ccc(/C=C2/C(=O)CCc3c(OC)cccc32)cc1O,> 10 µM,5.62 µM,6.31 µM,–
COc1ccc2c(c1)/C(=C\c1ccc(O)c(OC)c1)C(=O)CC2,> 10 µM,4.35 µM,6.93 µM,–
COc1ccc2c(c1)CCC(=O)/C2=C/c1ccc(Cl)cc1Cl,2.15 µM,0.33 µM,1.2 µM,–
COc1ccc2c(c1)CCC(=O)/C2=C/c1ccccc1Cl,1.7 µM,0.46 µM,0.58 µM,–
COc1cccc2c1CCC(=O)/C2=C/c1ccc(Br)cc1,6.8 µM,7.59 µM,> 10 µM,–
COc1ccc2c(c1)/C(=C\c1cc(OC)c(OC)c(OC)c1)C(=O)CC2,0.51 µM,0.34 µM,0.001 µM,9.63 µM
COc1ccc2c(c1)/C(=C\c1ccc(C(F)(F)F)cc1)C(=O)CC2,6.16 µM,6.45 µM,> 10 µM,–
COc1ccc2c(c1)/C(=C\c1ccc(O)cc1)C(=O)CC2,3.24 µM,0.86 µM,1.05 µM,–
COc1cccc2c1CCC(=O)/C2=C/c1ccc(Cl)cc1,7.52 µM,6.86 µM,8.53 µM,–
COc1cccc2c1CCC(=O)/C2=C/c1ccc([N+](=O)[O-])cc1,8.68 µM,7.68 µM,> 10 µM,–
COc1ccc2c(c1)/C(=C\c1ccc(OC)c(OC)c1OC)C(=O)CC2,2.68 µM,1.35 µM,4.21 µM,–
COc1ccc2c(c1)CCC(=O)/C2=C/c1ccccc1,0.47 µM,0.94 µM,0.92 µM,–
COc1cccc2c1CCC(=O)/C2=C/c1c(Cl)cccc1Cl,6.71 µM,> 10 µM,8.64 µM,–
COc1ccc2c(c1)CCC(=O)/C2=C/c1ccc(Cl)cc1,1.25 µM,0.89 µM,0.95 µM,–
COc1ccc2c(c1)CCC(=O)/C2=C/c1ccc(C)cc1,2.56 µM,1.33 µM,2.31 µM,–
COc1ccc2c(c1)CCC(=O)/C2=C/c1ccc(Br)cc1,2.94 µM,1.12 µM,1.52 µM,–
COc1ccc2c(c1)CCC(=O)/C2=C/c1ccc(OC)c(OC)c1,0.13 µM,0.2 µM,0.072 µM,6.42 µM
COc1cc(/C=C2/C(=O)CCc3c(OC)cccc32)cc(OC)c1,5.67 µM,3.95 µM,> 10 µM,–
COc1ccc2c(c1)/C(=C\c1ccc(Cl)cc1)C(=O)CC2,4.69 µM,5.83 µM,> 10 µM,–
COc1ccc2c(c1)/C(=C\c1ccc(Cl)cc1Cl)C(=O)CC2,> 10 µM,> 10 µM,> 10 µM,–
COc1cccc2c1CCC(=O)/C2=C/c1ccc(C(F)(F)F)cc1,5.38 µM,5.89 µM,> 10 µM,–
COc1ccc2c(c1)/C(=C\c1ccc(OC)c(OC)c1)C(=O)CC2,1.32 µM,0.89 µM,0.27 µM,–
COc1ccc2c(c1)CCC(=O)/C2=C/c1ccc([N+](=O)[O-])cc1,2.23 µM,0.54 µM,0.68 µM,–
COc1ccc2c(c1)/C(=C\c1ccc(C(C)(C)C)cc1)C(=O)CC2,> 10 µM,> 10 µM,> 10 µM,–
COc1ccc2c(c1)/C(=C\c1cccc(O)c1)C(=O)CC2,4.91 µM,2.07 µM,2.57 µM,–
COc1cc(/C=C2/C(=O)CCc3c(OC)cccc32)ccc1O,> 10 µM,8.63 µM,> 10 µM,–
